In this assay the target is T1, KRAS G12C 1-169, his-tagged protein, GDP-loaded (Homo sapiens, UniProt P01116, G12C).
T1 construct: KRAS G12C 1-169, his-tagged protein, GDP-loaded
Briefly: Biochemical assay: covalent modification of KRAS G12C measured by mass spectrometry (RapidFire/TOF or Q-Exactive). To be noted: covalent binding to KRAS G12C; compounds of structure (I). The essentials:
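GDP-loaded his-tagged KRAS G12C 1-169 at 2 μM in 20 mM Hepes, 150 mM NaCl, 1 mM MgCl2 incubated at room temperature with compound (10, 30 or 100 μM final, 2% DMSO) for 30 min, 2 h or 24 h, then quenched with formic acid. Intact-protein LC-MS (RapidFire/TOF or Q-Exactive) with deconvolution quantified modified versus unmodified protein.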

For `C=CC(=O)N1CCN(c2nc(NC3CN(C4CCOCC4)C3)nc3c(F)c(-c4c(O)cccc4F)c(Cl)cc23)CC1` [Example I-185, 1-(4-(6-chloro-8-fluoro-7-(2-fluoro-6-hydroxyphenyl)-2-((1-(tetrahydro-2H-pyran-4-yl)azetidin-3-yl)amino)quinazolin-4-yl)piperazin-1-yl) prop-2-en-1-one], the Binding % result is recorded as “+ (+ indicates binding activity up to 50%)”.

Regarding `C=CC(=O)N1CCN(c2nc(OC3CN(C4CCOCC4)C3)nc3c(F)c(-c4c(O)cccc4F)c(Cl)cc23)CC1` [Example I-186, 1-(4-(6-chloro-8-fluoro-7-(2-fluoro-6-hydroxyphenyl)-2-((1-(tetrahydro-2H-pyran-4-yl)azetidin-3-yl)oxy)quinazolin-4-yl)piperazin-1-yl) prop-2-en-1-one], the Binding % entry was “++ (++ indicates binding activity from 50 to 90%)”. On to `C=CC(=O)N1CCN(c2nc(NC3CN(c4ncccn4)C3)nc3c(F)c(-c4c(C)ccc5[nH]ncc45)c(Cl)cc23)CC1` [Example I-187, 1-(4-(6-chloro-8-fluoro-7-(5-methyl-1H-indazol-4-yl)-2-((1-(pyrimidin-2-yl)azetidin-3-yl)amino)quinazolin-4-yl)piperazin-1-yl) prop-2-en-1-one], for which the Binding % entry is given as “+ (+ indicates binding activity up to 50%)”.

On to `C=CC(=O)N1CCN(c2nc(NC3CC4CCC(C3)N4C3CC3)nc3c(F)c(-c4c(C)ccc5[nH]ncc45)c(Cl)cc23)CC1` (stereo not drawn) [Example I-188, 1-(4-(6-chloro-2-((8-cyclopropyl-8-azabicyclo[3.2.1]octan-3-yl)amino)-8-fluoro-7-(5-methyl-1H-indazol-4-yl)quinazolin-4-yl)piperazin-1-yl) prop-2-en-1-one], for which the Binding % entry was “++ (++ indicates binding activity from 50 to 90%)”. `C=CC(=O)N1CCN(c2nc(N)nc3c(F)c(-c4c(C)ccc5[nH]ncc45)c(Cl)cc23)CC1` [Example I-189, 1-(4-(2-amino-6-chloro-8-fluoro-7-(5-methyl-1H-indazol-4-yl)quinazolin-4-yl)piperazin-1-yl) prop-2-en-1-one]: the Binding % entry is “++ (++ indicates binding activity from 50 to 90%)”. The result for `C=CC(=O)N1CCN(c2nc(NC3CCN(c4ncccn4)CC3)nc3c(F)c(-c4c(O)cccc4F)c(Cl)cc23)CC1` [Example I-190, 1-(4-(6-chloro-8-fluoro-7-(2-fluoro-6-hydroxyphenyl)-2-((1-(pyrimidin-2-yl)piperidin-4-yl)amino)quinazolin-4-yl)piperazin-1-yl) prop-2-en-1-one] reads “+ (+ indicates binding activity up to 50%)”; that for `C=CC(=O)N1CCN(c2nc(N)nc3c(F)c(-c4cc(O)cc5ccccc45)c(Cl)cc23)CC1` [Example I-191, 1-(4-(2-amino-6-chloro-8-fluoro-7-(3-hydroxy-naphthalen-1-yl)quinazolin-4-yl)piperazin-1-yl) prop-2-en-1-one], “+++ (+++ indicates binding activity greater than 90%)”; that for `C=CC(=O)N1CCN(c2nc(OCCC3CCN(C4CC4)CC3)nc3c(F)c(-c4c(O)cccc4F)c(Cl)cc23)CC1` [Example I-192, 1-(4-(6-chloro-2-(2-(1-cyclopropyl-piperidin-4-yl)ethoxy)-8-fluoro-7-(2-fluoro-6-hydroxyphenyl)quinazolin-4-yl)piperazin-1-yl) prop-2-en-1-one], “+++ (+++ indicates binding activity greater than 90%)”. As for `C=CC(=O)N1CCN(c2nc(OC3CCN(C(C)C)CC3)nc3c(F)c(-c4c(C)ccc5[nH]ncc45)c(Cl)cc23)CC1` [Example I-193, 1-(4-(6-chloro-8-fluoro-2-((1-isopropyl-piperidin-4-yl)oxy)-7-(5-methyl-1H-indazol-4-yl)quinazolin-4-yl)piperazin-1-yl) prop-2-en-1-one], the Binding % entry is on record as “+++ (+++ indicates binding activity greater than 90%)”.

Turning to `C=CC(=O)N1CCN(c2nc(OC3CCN(C4CC4)CC3)nc3c(F)c(-c4c(C)ccc5[nH]ncc45)c(Cl)cc23)CC1` [Example I-194], the Binding % result is listed as “+ (+ indicates binding activity up to 50%)”. The entry for `C=CC(=O)N1CCN(c2nc(NC3CCN(C4CC4)CC3)nc3c(F)c(-c4c(C)ccc5cn[nH]c45)c(Cl)cc23)CC1` [Example I-196, 1-(4-(6-chloro-2-((1-cyclo-propylpiperidin-4-yl)amino)-8-fluoro-7-(6-methyl-1H-indazol-7-yl)quinazolin-4-yl)piperazin-1-yl) prop-2-en-1-one] is “++ (++ indicates binding activity from 50 to 90%)”; for `C=CC(=O)N1CCN(c2c(C#N)c(N3CC(N(C)C)C3)nc3c(F)c(-c4c(O)cccc4F)c(Cl)cc23)CC1` [Example I-197, 4-(4-acryloyl-piperazin-1-yl)-6-chloro-2-(3-(dimethyl-amino)azetidin-1-yl)-8-fluoro-7-(2-fluoro-6-hydroxyphenyl) quinoline-3-carbonitrile] it is “++ (++ indicates binding activity from 50 to 90%)”. For the molecule `C=CC(=O)N1CCN(c2nc(CCN3CC(C)(N(C)C)C3)nc3c(F)c(-c4c(O)cccc4F)c(Cl)cc23)CC1` [Example I-198, 1-(4-(6-chloro-2-(2-(3-(dimethyl-amino)-3-methyl-azetidin-1-yl)ethyl)-8-fluoro-7-(2-fluoro-6-hydroxyphenyl)quinazolin-4-yl)piperazin-1-yl) prop-2-en-1-one], the Binding % result is “++ (++ indicates binding activity from 50 to 90%)”. `C=CC(=O)N1CCN(c2nc(CNc3ccccn3)nc3c(F)c(-c4c(O)cccc4F)c(Cl)cc23)CC1` [Example I-199, 1-(4-(6-chloro-8-fluoro-7-(2-fluoro-6-hydroxyphenyl)-2-((pyridin-2-ylamino)methyl)quinazolin-4-yl)piperazin-1-yl) prop-2-en-1-one]: the Binding % entry is recorded as “+++ (+++ indicates binding activity greater than 90%)”. For `C=CC(=O)N1CCN(c2nc(CCN3CC(F)(F)C3)nc3c(F)c(-c4c(O)cccc4F)c(Cl)cc23)CC1` [Example I-200, 1-(4-(6-chloro-2-(2-(3,3-difluoro-azetidin-1-yl)ethyl)-8-fluoro-7-(2-fluoro-6-hydroxyphenyl)quinazolin-4-yl)piperazin-1-yl) prop-2-en-1-one], the Binding % entry was “++ (++ indicates binding activity from 50 to 90%)”.

As to `C=CC(=O)N1CCN(c2nc(CCNc3ccccn3)nc3c(F)c(-c4c(O)cccc4F)c(Cl)cc23)CC1` [Example I-201, 1-(4-(6-chloro-8-fluoro-7-(2-fluoro-6-hydroxyphenyl)-2-(2-(pyridin-2-ylamino)ethyl)quinazolin-4-yl)piperazin-1-yl) prop-2-en-1-one], the Binding % entry is “++ (++ indicates binding activity from 50 to 90%)”.

With `C=CC(=O)N1CCN(c2c(C#N)c(NC3CCN(C4CC4)CC3)nc3c(F)c(-c4c(C)ccc5[nH]ncc45)c(Cl)cc23)CC1` [Example I-202, 4-(4-acryloyl-piperazin-1-yl)-6-chloro-2-((1-cyclopropyl-piperidin-4-yl)amino)-8-fluoro-7-(5-methyl-1H-indazol-4-yl) quinoline-3-carbonitrile], the Binding % result was “++ (++ indicates binding activity from 50 to 90%)”. The entry for `C=CC(=O)N1CCN(c2nc(OCC3CCN(C4CC4)CC3)nc3c(F)c(-c4c(C)ccc5[nH]ncc45)c(Cl)cc23)CC1` [Example I-203, 1-(4-(6-chloro-2-((1-cyclopropyl-piperidin-4-yl)methoxy)-8-fluoro-7-(5-methyl-1H-indazol-4-yl)quinazolin-4-yl)piperazin-1-yl) prop-2-en-1-one] is “++ (++ indicates binding activity from 50 to 90%)”; for `C=CC(=O)N1CCN(c2nc(C(F)(F)F)nc3c(F)c(-c4c(O)cccc4F)c(Cl)cc23)CC1` [Example I-204, 1-(4-(6-chloro-8-fluoro-7-(2-fluoro-6-hydroxyphenyl)-2-(trifluoro-methyl)quinazolin-4-yl)piperazin-1-yl) prop-2-en-1-one] it is “++ (++ indicates binding activity from 50 to 90%)”. The result for `C=CC(=O)N1CCN(c2nc(P(C)(C)=O)nc3c(F)c(-c4c(O)cccc4F)c(Cl)cc23)CC1` [Example I-205, 1-(4-(6-chloro-2-(dimethyl-phosphoryl)-8-fluoro-7-(2-fluoro-6-hydroxyphenyl)quinazolin-4-yl)piperazin-1-yl) prop-2-en-1-one] reads “++ (++ indicates binding activity from 50 to 90%)”; that for `C=CC(=O)N1CCN(c2nc(OCCP(C)(C)=O)nc3c(F)c(-c4c(O)cccc4F)c(Cl)cc23)CC1` [Example I-206, 1-(4-(6-chloro-2-(2-(dimethyl-phosphoryl)ethoxy)-8-fluoro-7-(2-fluoro-6-hydroxyphenyl)quinazolin-4-yl)piperazin-1-yl) prop-2-en-1-one], “+++ (+++ indicates binding activity greater than 90%)”; that for `C=CC(=O)N1CCN(c2nc(OCCNP(C)(C)=O)nc3c(F)c(-c4c(O)cccc4F)c(Cl)cc23)CC1` [Example I-207, N-(2-(4-(4-acryloyl-piperazin-1-yl)-6-chloro-8-fluoro-7-(2-fluoro-6-hydroxyphenyl)quinazolin-2-yloxy)ethyl)-P,P-dimethyl-phosphinic amide], “++ (++ indicates binding activity from 50 to 90%)”. For the molecule `C=CC(=O)N1CCN(c2nc(NCCP(C)(C)=O)nc3c(F)c(-c4c(O)cccc4F)c(Cl)cc23)CC1` [Example I-208, 1-(4-(6-chloro-2-(2-(dimethyl-phosphoryl)ethylamino)-8-fluoro-7-(2-fluoro-6-hydroxyphenyl)quinazolin-4-yl)piperazin-1-yl) prop-2-en-1-one], the Binding % result is “++ (++ indicates binding activity from 50 to 90%)”. The result for `C=CC(=O)N1CCN(c2nc(CP(C)(C)=O)nc3c(F)c(-c4c(O)cccc4F)c(Cl)cc23)CC1` [Example I-209, 1-(4-(6-chloro-2-((dimethyl-phosphoryl)methyl)-8-fluoro-7-(2-fluoro-6-hydroxyphenyl)quinazolin-4-yl)piperazin-1-yl) prop-2-en-1-one] reads “++ (++ indicates binding activity from 50 to 90%)”.

The values above are taken from patent publication US10829458B2 (Araxes Pharma LLC, priority 2015, dated 2020).
